These results are taken from ChEMBL document CHEMBL4184286, “Discovery of morpholine-based aryl sulfonamides as Nav1.7 inhibitors” (Bioorg Med Chem Lett, 2018).

Structures are written as SMILES. pIC50: −log10 of the molar value.

Assay [1] addresses T1, Sodium channel protein type 9 subunit alpha (Homo sapiens, UniProt Q15858). In words: Antagonist activity at recombinant human Nav1.7 expressed in HEK293 cells assessed as reduction in channel current at -60 mV holding potential after 600 secs by barracuda automated electrophysiology method. The assay is classed as cell-based.
Target sequence in this assay (Q15858 whole entry): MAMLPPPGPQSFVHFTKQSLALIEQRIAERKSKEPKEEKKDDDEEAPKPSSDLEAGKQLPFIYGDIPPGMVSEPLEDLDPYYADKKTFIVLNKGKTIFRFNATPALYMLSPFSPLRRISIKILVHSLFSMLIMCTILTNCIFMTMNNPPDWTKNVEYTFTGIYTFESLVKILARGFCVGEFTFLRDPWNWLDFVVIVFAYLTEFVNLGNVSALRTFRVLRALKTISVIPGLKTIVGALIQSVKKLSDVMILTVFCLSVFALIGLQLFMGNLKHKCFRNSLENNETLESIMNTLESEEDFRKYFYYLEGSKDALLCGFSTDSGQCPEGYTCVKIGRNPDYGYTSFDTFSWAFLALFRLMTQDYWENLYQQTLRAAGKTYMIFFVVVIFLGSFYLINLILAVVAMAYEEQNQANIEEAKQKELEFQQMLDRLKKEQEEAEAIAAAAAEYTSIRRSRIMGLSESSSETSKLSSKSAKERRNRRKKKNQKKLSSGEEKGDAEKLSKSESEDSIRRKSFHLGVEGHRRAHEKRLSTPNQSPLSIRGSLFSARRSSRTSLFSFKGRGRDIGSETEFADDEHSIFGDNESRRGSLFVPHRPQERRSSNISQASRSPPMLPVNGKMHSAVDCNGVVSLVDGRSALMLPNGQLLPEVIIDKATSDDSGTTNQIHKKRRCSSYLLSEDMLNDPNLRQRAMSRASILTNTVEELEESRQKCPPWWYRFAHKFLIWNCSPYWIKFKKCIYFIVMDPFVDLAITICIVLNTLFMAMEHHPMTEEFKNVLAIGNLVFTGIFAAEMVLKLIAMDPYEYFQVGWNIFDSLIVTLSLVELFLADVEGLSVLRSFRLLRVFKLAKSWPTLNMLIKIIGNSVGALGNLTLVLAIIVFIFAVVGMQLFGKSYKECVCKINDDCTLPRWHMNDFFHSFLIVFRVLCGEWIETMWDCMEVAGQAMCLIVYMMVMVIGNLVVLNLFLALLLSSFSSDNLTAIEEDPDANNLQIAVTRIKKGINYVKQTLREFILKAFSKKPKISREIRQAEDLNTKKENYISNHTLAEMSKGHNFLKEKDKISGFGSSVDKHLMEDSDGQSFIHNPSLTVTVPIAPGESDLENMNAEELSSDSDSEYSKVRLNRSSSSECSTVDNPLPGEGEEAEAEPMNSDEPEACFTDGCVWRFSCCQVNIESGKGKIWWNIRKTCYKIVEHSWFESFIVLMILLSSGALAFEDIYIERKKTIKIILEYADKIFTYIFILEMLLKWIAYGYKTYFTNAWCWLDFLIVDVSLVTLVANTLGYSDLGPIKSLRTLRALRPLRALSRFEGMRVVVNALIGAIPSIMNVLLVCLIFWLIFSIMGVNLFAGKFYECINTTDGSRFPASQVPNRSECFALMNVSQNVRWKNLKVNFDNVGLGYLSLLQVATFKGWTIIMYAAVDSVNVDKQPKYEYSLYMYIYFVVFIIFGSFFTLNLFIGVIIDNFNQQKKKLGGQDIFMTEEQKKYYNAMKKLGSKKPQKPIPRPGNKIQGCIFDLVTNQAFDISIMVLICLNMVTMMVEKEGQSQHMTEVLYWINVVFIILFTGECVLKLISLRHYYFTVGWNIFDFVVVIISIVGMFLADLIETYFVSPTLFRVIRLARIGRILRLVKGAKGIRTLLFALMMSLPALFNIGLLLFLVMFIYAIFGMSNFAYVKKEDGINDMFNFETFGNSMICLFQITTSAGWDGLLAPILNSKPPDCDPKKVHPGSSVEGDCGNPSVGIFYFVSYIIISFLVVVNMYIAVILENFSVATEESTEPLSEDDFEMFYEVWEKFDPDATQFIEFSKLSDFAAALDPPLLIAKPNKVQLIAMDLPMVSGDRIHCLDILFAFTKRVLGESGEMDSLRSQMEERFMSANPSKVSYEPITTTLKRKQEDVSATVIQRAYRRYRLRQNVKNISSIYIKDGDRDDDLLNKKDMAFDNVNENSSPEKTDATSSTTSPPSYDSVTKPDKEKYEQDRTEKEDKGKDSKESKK
In assay [2] the target is Sodium channel protein type 5 subunit alpha (Homo sapiens, UniProt Q14524). Put plainly: Antagonist activity at recombinant human Nav1.5 expressed in HEK293 cells assessed as reduction in channel current at -50 mV holding potential after 600 secs by barracuda automated electrophysiology method. It counts as ADME, cell-based.
For assay [3], the target named is T1, Sodium channel protein type 9 subunit alpha. In words: Antagonist activity at recombinant human Nav1.7 expressed in HEK293 cells assessed as reduction in peak inward current at -65 mV holding potential by patch clamp electrophysiology. It counts as cell-based. On the technique in general: In patch-clamp work, channel activity is measured electrically.
Target sequence in this assay (Q15858 whole entry): as above
The target is the same in assay [4]. Put plainly: Antagonist activity at recombinant human Nav1.7 expressed in HEK293 cells assessed as reduction in peak inward current at 100 nM at -120 mV holding potential by patch clamp electrophysiology. The assay is classed as cell-based.
Target sequence in this assay (Q15858 whole entry, looked up): as the sequence (Q15858 whole entry) above
The target is the same in assay [5]. Put plainly: Antagonist activity at recombinant human Nav1.7 expressed in HEK293 cells assessed as reduction in peak inward current at 1 uM at -120 mV holding potential by patch clamp electrophysiology. The assay is classed as cell-based.
Target sequence in this assay (Q15858 whole entry, looked up): as the sequence (Q15858 whole entry) above
Assay [6] addresses Sodium channel protein type 2 subunit alpha (Homo sapiens, UniProt Q99250). In words: Antagonist activity at recombinant human Nav1.2 assessed as reduction in channel current by barracuda automated electrophysiology method.
Assay [7] has as its target Sodium channel protein type 8 subunit alpha (Homo sapiens, UniProt Q9UQD0). Put plainly: Antagonist activity at recombinant human Nav1.6 assessed as reduction in channel current by barracuda automated electrophysiology method.

Sequence of Sodium channel protein type 5 subunit alpha (Q14524 whole entry): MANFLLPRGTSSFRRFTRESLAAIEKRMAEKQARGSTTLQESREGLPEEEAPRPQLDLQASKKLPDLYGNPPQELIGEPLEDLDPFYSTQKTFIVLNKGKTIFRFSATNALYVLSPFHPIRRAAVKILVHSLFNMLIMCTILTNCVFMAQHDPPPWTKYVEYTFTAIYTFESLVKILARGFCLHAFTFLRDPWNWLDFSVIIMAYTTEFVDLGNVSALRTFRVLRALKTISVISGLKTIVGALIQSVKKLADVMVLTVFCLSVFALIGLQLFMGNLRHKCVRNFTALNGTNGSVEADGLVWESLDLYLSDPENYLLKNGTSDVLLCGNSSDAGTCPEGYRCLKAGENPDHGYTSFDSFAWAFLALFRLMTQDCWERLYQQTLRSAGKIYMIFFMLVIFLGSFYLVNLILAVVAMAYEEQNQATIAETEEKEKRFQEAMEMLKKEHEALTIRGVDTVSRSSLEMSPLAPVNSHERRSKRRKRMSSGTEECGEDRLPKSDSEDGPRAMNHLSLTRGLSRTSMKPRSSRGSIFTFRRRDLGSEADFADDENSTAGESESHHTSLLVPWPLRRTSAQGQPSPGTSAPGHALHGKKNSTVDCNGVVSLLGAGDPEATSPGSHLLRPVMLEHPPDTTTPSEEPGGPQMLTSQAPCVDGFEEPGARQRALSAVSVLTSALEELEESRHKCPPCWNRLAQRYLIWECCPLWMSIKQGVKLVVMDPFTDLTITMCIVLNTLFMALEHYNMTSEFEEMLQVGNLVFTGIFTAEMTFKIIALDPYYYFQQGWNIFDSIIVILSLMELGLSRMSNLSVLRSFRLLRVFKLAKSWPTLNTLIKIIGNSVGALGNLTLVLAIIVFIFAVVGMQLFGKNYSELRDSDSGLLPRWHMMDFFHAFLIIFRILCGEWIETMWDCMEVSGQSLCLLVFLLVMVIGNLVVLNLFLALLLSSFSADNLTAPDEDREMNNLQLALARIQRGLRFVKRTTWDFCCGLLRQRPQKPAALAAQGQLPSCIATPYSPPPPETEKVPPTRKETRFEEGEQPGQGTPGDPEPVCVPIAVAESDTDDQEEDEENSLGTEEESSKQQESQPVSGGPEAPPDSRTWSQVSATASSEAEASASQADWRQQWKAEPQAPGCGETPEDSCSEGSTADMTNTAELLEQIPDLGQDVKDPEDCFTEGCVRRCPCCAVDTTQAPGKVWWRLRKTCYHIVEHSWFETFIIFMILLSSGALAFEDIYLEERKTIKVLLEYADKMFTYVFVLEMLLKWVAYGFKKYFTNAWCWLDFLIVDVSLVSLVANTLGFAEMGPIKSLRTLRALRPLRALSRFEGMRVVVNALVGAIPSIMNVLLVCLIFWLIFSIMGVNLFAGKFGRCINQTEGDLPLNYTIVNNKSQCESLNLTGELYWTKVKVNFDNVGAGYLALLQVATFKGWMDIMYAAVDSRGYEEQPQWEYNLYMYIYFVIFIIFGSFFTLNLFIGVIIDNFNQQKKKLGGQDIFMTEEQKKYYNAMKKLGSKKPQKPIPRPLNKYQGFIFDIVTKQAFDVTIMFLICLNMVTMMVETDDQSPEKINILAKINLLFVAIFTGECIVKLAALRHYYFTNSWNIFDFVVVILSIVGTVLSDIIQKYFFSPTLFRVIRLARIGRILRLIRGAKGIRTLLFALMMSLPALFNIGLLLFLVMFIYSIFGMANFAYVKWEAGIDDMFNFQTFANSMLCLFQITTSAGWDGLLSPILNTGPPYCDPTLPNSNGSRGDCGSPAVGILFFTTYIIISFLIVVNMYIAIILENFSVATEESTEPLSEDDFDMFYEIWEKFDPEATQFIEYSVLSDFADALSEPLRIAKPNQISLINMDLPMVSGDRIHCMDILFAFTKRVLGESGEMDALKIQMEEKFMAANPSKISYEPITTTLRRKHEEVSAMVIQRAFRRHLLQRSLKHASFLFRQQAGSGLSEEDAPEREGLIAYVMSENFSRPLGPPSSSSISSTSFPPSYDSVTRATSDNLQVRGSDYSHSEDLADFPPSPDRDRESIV

With `CC1(C)CN[C@H](c2cc(Cl)cc(Cl)c2)[C@@H](Oc2cc(F)c(S(=O)(=O)Nc3ncns3)cc2F)O1`, the negative-log IC50 (pIC50) is 7.39 in assay [1]; 5.22 in assay [2]; 7.96 in assay [3]; 5.82 in assay [6]; 5.80 in assay [7]. In addition, the inhibition in assay [4] is 8%; in assay [5] it was 48%.

With `CN(C)c1noc2ccc(C3NCCOC3Oc3cc(F)c(S(=O)(=O)Nc4ncns4)cc3F)cc12` (single isomer, unassigned; isomer B), the negative logarithm of the IC50 (pIC50) in assay [1] was 6.85; in assay [2], 5.30.

Regarding `O=S(=O)(Nc1ncns1)c1cc(F)c(OC2OCCNC2c2ccc(Cl)c(Cl)c2)cc1F` (single isomer, unassigned; isomer A), the figures for the pIC50 in assay [1] and in assay [2] were 5.92 and 6.00, respectively.

As a reminder, the pIC50 is the IC50 on a negative log10 scale, so that one unit is a factor of ten. A word on the inhibition: it is the drop in the measured response relative to a control, in per cent.
